Source: US8802630B2, “Method of treating brain injury” (Buddhist Tzu Chi General Hospital, priority 2011, dated 2014)
Where no end group is shown, it is not given here.

Experiments:
Format in all cases: in vivo
[1] = tested on: autologous blood infusion-induced ICH rats; assay: modified Neurological Severity Score (mNSS), autologous blood infusion ICH model
Description: The ICH refers to hemorrhage in the striatum, a part of the brain. Male Sprague-Dawley rats (250-300 g) anesthetized with chloral hydrate (0.4 g kg^−1 i.p., Sigma-Aldrich, St. Louis, Mo., USA). The blood infusion model of ICH was induced by intrastriatal (0.0 mm posterior, 3.0 mm right, 5.0 mm ventral to bregma skull surface) infusion of autologous blood (100 μl within 1 minute) and stereotaxic administration of bacterial collagenase VII-S into the striatum (MacLellan et al. 2008; Rosenberg et al. 1990). Briefly, bacterial collagenase VII-S (0.23 U in 1.0 μl sterile saline, Sigma-Aldrich) was infused into the striatum over a period of 10 minutes. The needle was kept in place for another 10 minutes to prevent backflow. The craniotomies were sealed with bone wax. The rats were allowed to recover in separate cages at room temperature.
Rats were used in the assessment of the neurological abnormalities with a modified Neurological Severity Score (mNSS) method (Chen et al. 2001) by an investigator blinded to the experimental treatment scheme. The mNSS is a composite test of motor, sensory, and balance functions. The assessment was performed before and on 1, 3 and 7 days after the ICH. Neurological functions were graded on a scale of 0-18 (normal score, 0; maximal deficit score, 18).

[2] = tested on: collagenase-induced ICH rats; assay: Assessment of brain edema (brain water content, wet/dry method); conditions: day 3 post-ICH
Source text: Brain edema formation peaks on day 3 post-ICH (Xue et al., 2000; Yang et al., 1994). […] Rats were randomly used in the assessment of brain water content by using a common wet/dry method as previously described (Chu et al., 2004). Briefly, 3 days post-ICH, rats were anesthetized and decapitated. The brains were removed and separated into contralateral, ipsilateral hemispheres and cerebellum. The cerebellum was used as an internal control. Sample was weighed to obtain the wet weight immediately, and then dried in an oven at 100° C. for 24 hours to obtain the dry weight. The water content was expressed as a percentage of the wet weight: [(wet weight)−(dry weight)](wet weight)^−1×100%.

[3] = tested on: collagenase-induced ICH rats; assay: Assessment of blood-brain barrier disruption (Evans blue extravasation)
Description: Rats were randomly used in assessment of the vascular permeability of BBB with a modified Evans blue extravasation method (Esen et al., 2005). Briefly, 70 hours post-ICH, rats were anesthetized with chloral hydrate (0.4 g/kg) and infused, via the right femoral vein with 37° C. Evans blue dyes (2% in 0.9% normal saline, 4 ml/kg) over 5 minutes. Two hours later, the rats were perfused with 300 ml normal saline to wash out any remaining dye in the blood vessels and then brains were removed and sectioned into 2 mm thickness by a rodent brain matrix. Coronal brain sections were taken starting at +2 mm and ending at −4 mm from Bregma. BBB permeability was evaluated in the striatum, cortex and cerebellum. The cerebellum was used as an internal control. Each portion was weighed immediately and placed in 1 ml of 0.9% normal saline for homogenization of the sample. For protein precipitation, 1 ml of 60% trichloroacetic acid solution was added and vortexed for 2 minutes. The mixture was subsequently cooled for 30 minutes and centrifuged (1500 g at 4° C.) for another 30 minutes. The absorbance of Evans blue in the supernatant was then measured with a spectrophotometer (Molecular Devices OptiMax, USA) at 610 nm The dye concentration was expressed as μg/g of tissue weight and calculated from a standard curve obtained from known amounts of the dye.

[4] = tested on: collagenase-induced ICH rats; assay: Morphometric measurement of lesion volume / injured area; conditions: for injured area: UCN 5 μg i.c.v.
Source text: […] The brains were cut coronally through the needle entry site (identifiable on the brain surface), and then serially sliced (2-mm thickness) anteriorly and posteriorly to the needle entry site. Digital photographs of the serial slices were taken and lesion volume was computed using image analyzer program (Image J, NIH). The total lesion volume (mm^3) was computed by summing the residual blood clot and damaged area in each section and multiplying by the distance between sections (Jung et al., 2004).

[5] = Cerebral blood flow after bolus injection of UCN; conditions: UCN 25 μg/kg body weight

For “urocortin (DNPSLSIDLTFHLLRTLLELARTQSQRERAEQNRIIFDSV; ends and bridges not checked; UniProt P55089 83-122, looked up) [UCN, a 40-amino-acid endogenous neuropeptide, belongs to the corticotrophin releasing hormone (CRH) family]”, the mNSS ([1]; UCN 2.5 μg/kg i.p. 60 min after blood infusion ICH, vs ICH+Saline) was “greater reduction in mNSS”, the mNSS ([1]; UCN 5 μg i.c.v. 1 h after blood infusion ICH, vs saline) was “greater reduction in mNSS” and the brain water content ([2]; cerebellum, L-UCN and H-UCN i.p., among groups) was “No significant differences”. The brain water content ([2]; cerebellum, UCN 5 μg i.c.v., among groups) was “essentially not affected”, the brain water content ([2]; contralateral hemisphere, H-UCN 25 μg/kg i.p.) was 79.40±0.15% and the brain water content ([2]; contralateral hemisphere, L-UCN 2.5 μg/kg i.p.) was 79.98±0.19%. For the same substance, the brain water content ([2]; contralateral hemisphere, UCN 5 μg i.c.v.) was 80.08±0.08%, the brain water content ([2]; ipsilateral hemisphere, H-UCN 25 μg/kg i.p.) was 79.94±0.66% and the brain water content ([2]; ipsilateral hemisphere, L-UCN 2.5 μg/kg i.p.) was 80.60±0.17%. For the same substance, the brain water content ([2]; ipsilateral hemisphere, UCN 5 μg i.c.v.) was 81.16±0.16%, the “Evans blue dye concentration” value ([3]; cerebellum, contralateral cerebral cortex and striatum, L-UCN 2.5 μg/kg i.p., day 3) was “not changed” and the “Evans blue dye concentration” value ([3]; contralateral striatum, contralateral and ipsilateral cortices, cerebellum, UCN 5 μg i.c.v., day 3, vs ICH+Saline) was “not different”. For the same substance, the “Evans blue dye concentration” value ([3]; ipsilateral cortex, L-UCN 2.5 μg/kg i.p., day 3 post-ICH) was 0.38 ± 0.05 µg/g, the “Evans blue dye concentration” value ([3]; ipsilateral striatum, L-UCN 2.5 μg/kg i.p., day 3 post-ICH) was 1.73 ± 0.36 µg/g and the Evans blue concentration ([3]; ipsilateral striatum, UCN 5 μg i.c.v., day 3 after ICH) was 1.24 ± 0.31 µg/g. It also gave a lesion volume ([4]; L-UCN 2.5 μg/kg i.p., day 3 post-ICH) of 23.73±1.79 mm^3, an injured area ([4]; day 3 after ICH) of 16.14±1.22 mm^2 and an injured area ([4]; day 7 after ICH) of 5.62±1.04 mm^2. The “reduction of the cerebral blood flow (CBF)” value ([5]; bolus intraperitoneal injection) was 25% and the “reduction of CBF” value ([5]; bolus intravenous injection) was 40-45%.
